{
  "source": "patent US20100311109A1",
  "about": "“NON-CONTACT METHOD FOR Q[…] IN THE DYNAMICS OF MICROBIAL POPULATIONS” (priority 2009, published 2010)",
  "system": "E. coli",
  "assay": "Time-kill study of E. coli exposed to ciprofloxacin, measured by infrared thermography (Energy Number)",
  "type": "cell-based, Escherichia coli",
  "conditions": "starting inoculum approx. 2×10^6 CFU/ml, 37° C., 0-24 hours",
  "protocol": "It was desired to evaluate utility of the system in a real-time method to measure bacterial growth and death as a function of exposure to an antimicrobial. For that purpose, time-kill studies were performed using E. coli cultures, established substantially as set forth in Example 2. A series of microtiter plates were inoculated with an overnight culture of a representative gram-negative E. coli strain to achieve a starting inoculum of approximately 2×10^6 CFU/ml per well. Test wells were exposed to nine concentrations of an antimicrobial agent of a representative fluoroquinolone (ciprofloxacin) ranging from 0- to 32-fold minimum inhibitory concentration (MIC). […] of those treatments (0, […], 1, 2, 4, and 8-fold MIC) were subcultured for determination of viable cell counts. Control wells received no ciprofloxacin. […] Post-imaging, the contents of the designated wells were removed and the number of viable bacteria in each well was determined using drop and filter count methods.\nFIGS. 7a and 7b set forth the changes in bacterial viable counts and the Energy Number of the medium over time, respectively. The Energy Number of the medium over time as determined from thermodynamic modeling of the IR images collected by the detector was highly correlated (R^2=0.9891) to the viable counts obtained following 24 hr incubation (see FIG. 7c).",
  "data": [
    {"smiles": "O=C(O)c1cn(C2CC2)c2cc(N3CCNCC3)c(F)cc2c1=O", "note": "[ciprofloxacin]", "values": [
      {"measurement": "IRT time-kill result (Energy Number over time)", "setting": "highest (16.0 and 32.0-fold MIC) concentration", "value": "rapid bacterial killing"},
      {"measurement": "IRT time-kill result (Energy Number over time)", "setting": "lowest (0.125 and 0.25-fold MIC) concentration", "value": "net bacterial growth"}
    ]}
  ]
}
